Results on two compounds are retold here after patent US10849915B2, “Methods for treating inflammatory bowel disease using prostate specific membrane antigen (PSMA) inhibitors” (The Johns Hopkins University, priority 2014, dated 2020).

One data set relates to DSS-induced colitis. The experiment in a line: DSS-induced murine model of colitis. The format is in vivo, mice (C57/B6). The source says: DSS-induced colitis model was generated as described previously (Alex et al., 2009; Alex et al., 2010). […] The fact that mutations in either IL-10 or IL-10 receptors in human lead to spontaneous Crohn's disease at very early age (usually less than 1 year old) (Glocker et al., 2011), further emphasize the critical role of IL-10 signaling pathway in its anti-inflammatory and immune-modulatory effects in the gut and the homeostasis of healthy gut.

Data set [1] deals with spontaneous colitis in IL-10 KO mice. Kind of data set: IL-10 knockout mice with spontaneous colitis. The data set is classed as in vivo, mice (C57/B6).
For data set [2] the following is noted: 2-PMPA 100 mg/kg i.p., daily for 8 days, DSS mice, 2 h after dosing on day 8.
Procedure: Blood and colonic mucosa were collected for drug PK analysis. Plasma was generated from blood by centrifugation and all samples were stored at −80° C. until further analysis. Concentrations of inhibitors in plasma and tissue were determined via LC/MS/MS as described previously (Rais et al., 2013). Briefly, 2-PMPA was extracted from plasma and tissue by protein precipitation with 5× methanol containing 2-(phosphonomethyl) succinic acid (2-PMSA; 1 μM) as an internal standard. The samples were vortexed (30 s) and centrifuged (10,000 g for 10 min). Supernatant was dried under a gentle stream of nitrogen at 45° C. and the residue was reconstituted with 100 μL of acetonitrile and vortexed. 50 μL of derivatizing agent N-tert-Butyldimethysilyl-N-methyltrifluoro-acetamide (MTBSTFA) was added to microcentrifuge tubes, vortexed, and heated at approximately 60° C. for 40 min. At the end of 40 min, the derivatized samples were analyzed via LC/MS/MS. Chromatographic analysis was performed using an Accela™ ultra high-performance system consisting of an analytical pump, and an autosampler coupled with TSQ Vantage mass spectrometer (Thermo Fisher Scientific Inc., Waltham Mass.). […] The [M+H]+ ion transitions of derivatized 2-PMPA at m/z 683.0>551.4 and that of the internal standard at m/z 669.0>537.2 were monitored with the total run time of 5 min. […]
The target of the next data set is T1, PSMA (Mus musculus, UniProt O35409).
T1 construct: from tissue; host or cells: colonic or cecal mucosa of C57/B6 mice with DSS-induced colitis (sonicated tissue lysate supernatant)
The experiment in a line: GCPII (PSMA) ex vivo activity assay on mucosa extract of DSS colitis mice. The data set is classed as biochemical. To be noted: DSS-treated mice, extract from mucosa; FIG. 4. How it is done:
On the day of the ex vivo experiment, the tissues were weighed and immersed in 0.5 ml of ice-cold 50 mM Tris Buffer (pH 7.7 at RT). While on ice, each tissue was sonicated for 30-60 seconds (medium output, 60) via use of a Kontes Ultrasonic Cell Disrupter. After a 2 min spin at 13,000 rpm, supernatants were analyzed for protein content (Dc Protein Assay Kit; Bio Rad). NAAG-hydrolyzing activity measurements were carried out, based on published procedures Robinson et al., 1987; Rojas et al., 2002). Briefly, the reaction mixture (total volume of 50 μL) contained NAA[3H]G (70 nM, 50 Ci/mmol) and tissue lysates (7 concentrations each, tested in quadruplicate), in Tris-HCl (pH 7.4, 40 mM) containing 1 mM CoCl2. Assay standards were comprised of human recombinant GCPII enzyme (40-200 pM, final). The reaction was carried out at 37° C. for 40-45 min and stopped with ice-cold sodium phosphate buffer (pH 7.4, 0.1 M, 50 μL). Blanks were obtained by incubating the reaction mixture in the absence of enzyme source. A 90 μL aliquot from each terminated reaction was transferred to a well in a 96-well spin column containing AG1X8 ion-exchange resin; the plate was centrifuged at 1500 rpm for 5 min using a Beckman GS-6R centrifuge equipped with a PTS-2000 rotor. […] The radioactivity corresponding to [3H]-G was determined with a scintillation counter (Topcount NXT, Packard, counting efficiency 80%). […]

SMILES strings stand for the structures.

T1 sequence (O35409 whole entry): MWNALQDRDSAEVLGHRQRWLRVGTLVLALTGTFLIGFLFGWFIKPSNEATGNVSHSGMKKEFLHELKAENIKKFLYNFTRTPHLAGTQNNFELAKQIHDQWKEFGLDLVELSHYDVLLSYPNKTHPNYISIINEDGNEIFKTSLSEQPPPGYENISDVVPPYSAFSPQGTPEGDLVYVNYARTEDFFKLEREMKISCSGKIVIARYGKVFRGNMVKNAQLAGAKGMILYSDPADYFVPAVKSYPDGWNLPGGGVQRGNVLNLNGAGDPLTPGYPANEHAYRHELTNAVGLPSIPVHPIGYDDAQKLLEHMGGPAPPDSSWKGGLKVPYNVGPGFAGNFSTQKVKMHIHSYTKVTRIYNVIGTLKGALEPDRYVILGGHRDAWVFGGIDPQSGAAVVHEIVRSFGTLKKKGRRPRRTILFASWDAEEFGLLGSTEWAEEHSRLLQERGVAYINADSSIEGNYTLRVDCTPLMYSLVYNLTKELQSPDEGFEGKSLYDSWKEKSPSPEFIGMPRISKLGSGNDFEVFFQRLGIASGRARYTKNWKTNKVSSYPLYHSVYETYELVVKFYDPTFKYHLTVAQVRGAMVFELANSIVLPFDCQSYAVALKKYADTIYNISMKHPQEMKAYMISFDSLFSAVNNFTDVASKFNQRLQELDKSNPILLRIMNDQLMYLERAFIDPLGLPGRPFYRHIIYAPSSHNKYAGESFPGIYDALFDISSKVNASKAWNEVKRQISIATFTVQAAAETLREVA

As for `O=C(O)CCC(CP(=O)(O)O)C(=O)O` (stereo not drawn) [2-PMPA, 2-(phosphonomethyl)-pentanedioic acid], the “Disease activity index (DAI)” value with DSS-induced colitis (DSS 2.5%, 7 days in drinking water, 2-PMPA 100 mg/kg given simultaneously, vs vehicle, P<0.05, FIG. 3) is on record as “ameliorates disease activity”. Also, the “size and weight of spleen” value in the data set with DSS-induced colitis (DSS-induced murine model of colitis, FIG. 5) is recorded as “reduces”. In the data set on DSS-induced colitis (mice with DSS-colitis, FIG. 5), the spleen inflammation entry is “significantly reduced”. Moreover, the “mice with complete retraction of prolapse” value in data set [1] (2 of the 20 IL-10 KO mice treated, 100 mg/kg for 2 weeks, FIG. 6D) is 10%. The “disease severity (macroscopic disease, colonic hypotrophy, stool consistency)” value in data set [1] (IL-10 KO mice, 3 month old, 2-PMPA 100 mg/kg for 2 weeks, FIGS. 6A-6B) was “significantly reduced”. In addition, the “body weight of prolapse-retracting mice” value in data set [1] (compared to untreated control IL-10 KO mice, FIG. 6C) is recorded as “increased dramatically”. The “2-PMPA concentration in plasma and colon” value in data set [2] was “approximately 25 μM”. For the same compound, the “PSMA activity in the colonic and cecal mucosa” value on PSMA is “potently inhibited”.

Turning to `CC(C)OC(=O)OCOC(=O)C(CCC(=O)O)CP(=O)(OCOC(=O)OC(C)C)OCOC(=O)OC(C)C` (stereo not drawn) [Tris-POC-2-PMPA], the “colon shortening of DSS-colitis mice” value in the data set on DSS-induced colitis (oral administration, n=5 per group, P 0.06, not statistically significant, FIG. 9) is on record as “reversed”.
